{"source": "ChEMBL document CHEMBL1687734", "about": "“Pharmacokinetics of EDP-420 after multiple oral doses in healthy adult volunteers and in a bioequivalence study” (Antimicrob Agents Chemother, 2009)", "key": {"Homo sapiens [1]": {"system": "Homo sapiens", "experiment": "Toxicity in high-fat fed healthy human assessed as changes in physical examinations at 200 mg, po administered as single dose of two-100 mg capsules", "type": "organism-based", "details": "in vivo"}, "Homo sapiens [2]": {"system": "Homo sapiens", "experiment": "Ratio of AUC (0 to infinity) in high-fat fed healthy human plasma at 200 mg, po administered as single dose of two-100 mg capsules to AUC (0 to infinity) in high-fat fed healthy human plasma assessed as EDP-420 9-keto level at 200 mg, po administered as single dose of two-100 mg capsules", "type": "ADME, organism-based", "details": "in vivo"}, "[3]": {"experiment": "Tmax in 8 hrs fasted healthy human plasma at 200 mg, po administered as single dose of two-100 mg capsules", "type": "ADME, organism-based"}, "Homo sapiens [4]": {"system": "Homo sapiens", "experiment": "Toxicity in healthy human in 8 hrs fasted healthy human assessed as incidence of severe adverse events at 200 mg, po administered as single dose of two-100 mg capsules", "type": "organism-based", "details": "in vivo"}, "[5]": {"experiment": "Drug concentration in Alveolar macrophage of healthy human at 400 mg, po administered as single dose after 24 hrs", "type": "ADME, organism-based", "details": "alveolar macrophages, read-out: Drug uptake"}, "[6]": {"experiment": "Cmax in healthy human plasma at 200 mg, po once daily for 3 days measured after 3 days", "type": "ADME, organism-based", "design": "dose 200 mg, route oral"}, "Homo sapiens [7]": {"system": "Homo sapiens", "experiment": "Toxicity in healthy human in 8 hrs fasted healthy human assessed as changes in physical examinations at 200 mg, po administered as single dose of two-100 mg capsules", "type": "organism-based", "details": "in vivo"}, "[8]": {"experiment": "Tmax in healthy human plasma at 200 mg, po once daily for 3 days measured after 3 days", "type": "ADME, organism-based"}, "[9]": {"experiment": "Cmax in healthy human plasma at 400 mg administered once on day 1 followed by 200 mg once daily for 2 days during 3 days of treatment measured after 3 days", "type": "ADME, organism-based", "design": "dose 400 mg"}, "[10]": {"experiment": "Drug concentration in Epithelial lining fluid of healthy human at 400 mg, po administered as single dose after 24 hrs", "type": "ADME, organism-based", "details": "read-out: Drug uptake"}, "Homo sapiens [11]": {"system": "Homo sapiens", "experiment": "Toxicity in healthy human assessed as occurrence of mortality at 200 mg, po once daily for 3 days", "type": "organism-based", "details": "in vivo, 72 h"}, "[12]": {"experiment": "Tmax in high-fat fed healthy human plasma at 200 mg, po administered as single dose of two-100 mg capsules", "type": "ADME, organism-based"}, "[13]": {"experiment": "Cmax in high-fat fed healthy human plasma at 200 mg, po administered as single dose of two-100 mg capsules", "type": "ADME, organism-based", "design": "dose 200 mg, route oral"}, "[14]": {"experiment": "AUC (0 to last) in healthy human plasma at loading dose of 400 mg/day, po once daily for 3 days measured after 1 day", "type": "ADME, organism-based", "design": "dose 400 mg/day, time 0 - last, route oral"}, "[15]": {"experiment": "AUC (0 to infinity) in healthy human plasma at 400 mg administered once on day 1 followed by 200 mg once daily for 2 days during 3 days of treatment measured after 3 days", "type": "ADME, organism-based", "design": "dose 400 mg, time infinity"}, "[16]": {"experiment": "Half life in healthy human plasma at 200 mg, po once daily for 3 days measured after 3 days", "type": "ADME, organism-based"}, "[17]": {"experiment": "AUC (0 to infinity) in healthy human plasma at 200 mg, po once daily for 3 days measured after 3 days", "type": "ADME, organism-based", "design": "dose 200 mg, route oral, time infinity"}, "[18]": {"experiment": "Cmax in 8 hrs fasted healthy human plasma at 200 mg, po administered as single dose of suspension", "type": "ADME, organism-based", "design": "dose 200 mg, route oral"}, "Homo sapiens [19]": {"system": "Homo sapiens", "experiment": "Toxicity in healthy human in 8 hrs fasted healthy human assessed as changes in vital signs at 200 mg, po administered as single dose of two-100 mg capsules", "type": "organism-based", "details": "in vivo"}, "[20]": {"experiment": "Tmax in healthy human plasma at 200 mg, po once daily for 3 days measured after 1 day", "type": "ADME, organism-based"}, "[21]": {"experiment": "Tmax in 8 hrs fasted healthy human plasma at 200 mg, po administered as single dose of suspension", "type": "ADME, organism-based"}, "Homo sapiens [22]": {"system": "Homo sapiens", "experiment": "Toxicity in healthy human assessed as incidence of severe adverse events at 200 mg, po once daily for 3 days", "type": "organism-based", "details": "in vivo, 72 h"}, "Homo sapiens [23]": {"system": "Homo sapiens", "experiment": "Ratio of AUC (0 to infinity)in 8 hrs fasted healthy human plasma at 200 mg, po administered as single dose of two-100 mg capsules to AUC (0 to infinity) in 8 hrs fasted healthy human plasma assessed as EDP-420 9-keto level at 200 mg, po administered as single dose of two-100 mg capsules", "type": "ADME, organism-based", "details": "in vivo"}, "[24]": {"experiment": "AUC (0 to 24 hrs) in Epithelial lining fluid of healthy human at 400 mg, po administered as single dose", "type": "ADME, organism-based", "details": "read-out: Drug uptake"}, "[25]": {"experiment": "Half life in high-fat fed healthy human plasma at 200 mg, po administered as single dose of two-100 mg capsules", "type": "ADME, organism-based"}, "Homo sapiens [26]": {"system": "Homo sapiens", "experiment": "Ratio of Cmax in 8 hrs fasted healthy human plasma at 200 mg, po administered as single dose of two-100 mg capsules to cmax in 8 hrs fasted healthy human plasma assessed as EDP-420 9-keto level at 200 mg, po administered as single dose of two-100 mg capsules", "type": "ADME, organism-based", "details": "in vivo"}, "Homo sapiens [27]": {"system": "Homo sapiens", "experiment": "Ratio of AUC (0 to 24 hrs) in healthy human plasma at 200 mg, po once daily for 3 days measured after 3 days to AUC (0 to 24 hrs) in healthy human plasma at 200 mg, po once daily for 3 days measured after 1 day", "type": "ADME, organism-based", "details": "in vivo"}, "Homo sapiens [28]": {"system": "Homo sapiens", "experiment": "Ratio of AUC (0 to 24 hrs) in healthy human plasma at 200 mg, po once daily for 3 days measured on day 3 to AUC (0 to 24 hrs) in healthy human plasma at 200 mg, po once daily for 3 days measured on day 1", "type": "ADME, organism-based", "details": "in vivo"}, "Homo sapiens [29]": {"system": "Homo sapiens", "experiment": "Toxicity in healthy human in 8 hrs fasted healthy human assessed as changes in physical examinations at 200 mg, po administered as single dose of suspension", "type": "organism-based", "details": "in vivo"}, "[30]": {"experiment": "Half life in healthy human plasma at 400 mg administered once on day 1 followed by 200 mg once daily for 2 days during 3 days of treatment measured after 3 days", "type": "ADME, organism-based"}}}
{"compound": "CC[C@H]1OC(=O)[C@H](C)C(=O)[C@H](C)[C@@H](O[C@@H]2O[C@H](C)C[C@H](N(C)C)[C@H]2O)[C@@]2(C)C[C@@H](C)/C(=N\\C(C)=O)[C@H](C)[C@@H](OC/C(=N\\OCc3ccc(-n4cccn4)nc3)CO2)[C@]1(C)O", "note": "[MODITHROMYCIN]", "values": [{"measurement": "Activity", "setting": "Homo sapiens [1]", "result": "Non-toxic"}, {"measurement": "Ratio", "setting": "Homo sapiens [2]", "result": 0.147}, {"measurement": "Tmax", "setting": "[3]", "result": 3.5, "unit": "h"}, {"measurement": "Activity", "setting": "Homo sapiens [4]", "result": "Non-toxic"}, {"measurement": "concentration at 24 h", "setting": "[5]", "result": 68000, "unit": "ng/mL"}, {"measurement": "Cmax", "setting": "[6]", "result": 559, "unit": "ng/mL"}, {"measurement": "Activity", "setting": "Homo sapiens [7]", "result": "Non-toxic"}, {"measurement": "Tmax", "setting": "[8]", "result": 3.25, "unit": "h"}, {"measurement": "Cmax", "setting": "[9]", "result": 514, "unit": "ng/mL"}, {"measurement": "concentration at 24 h", "setting": "[10]", "result": 6500, "unit": "ng/mL"}, {"measurement": "Activity", "setting": "Homo sapiens [11]", "result": "Non-toxic"}, {"measurement": "Tmax", "setting": "[12]", "result": 4, "unit": "h"}, {"measurement": "Cmax", "setting": "[13]", "result": 394, "unit": "ng/mL"}, {"measurement": "AUC(0-t) at 24 h", "setting": "[14]", "result": 8100, "unit": "ng·h/mL"}, {"measurement": "AUC(0-inf)", "setting": "[15]", "result": 15100, "unit": "ng·h/mL"}, {"measurement": "half-life", "setting": "[16]", "result": 17.4, "unit": "h"}, {"measurement": "AUC(0-inf)", "setting": "[17]", "result": 16400, "unit": "ng·h/mL"}, {"measurement": "Cmax", "setting": "[18]", "result": 381, "unit": "ng/mL"}, {"measurement": "Activity", "setting": "Homo sapiens [19]", "result": "Non-toxic"}, {"measurement": "Tmax", "setting": "[20]", "result": 3.5, "unit": "h"}, {"measurement": "Tmax", "setting": "[21]", "result": 3.5, "unit": "h"}, {"measurement": "Activity", "setting": "Homo sapiens [22]", "result": "Non-toxic"}, {"measurement": "Ratio", "setting": "Homo sapiens [23]", "result": 0.093}, {"measurement": "AUC", "setting": "[24]", "result": 212000, "unit": "ng·h/mL"}, {"measurement": "half-life", "setting": "[25]", "result": 16.9, "unit": "h"}, {"measurement": "Ratio", "setting": "Homo sapiens [26]", "result": 0.058}, {"measurement": "Ratio AUC", "setting": "Homo sapiens [27]", "result": 1.4}, {"measurement": "Ratio AUC", "setting": "Homo sapiens [28]", "result": 1.41}, {"measurement": "Activity", "setting": "Homo sapiens [29]", "result": "Non-toxic"}, {"measurement": "half-life", "setting": "[30]", "result": 17.7, "unit": "h"}]}
